US12643858B2 (Inipharm, Inc., priority 2020, dated 2026)

What follows are compounds tested against T1, HSD17B13 enzyme (Homo sapiens, UniProt Q7Z5P4) (assay: NADH detection assay (fluorescence based LTB3 assay) for HSD17B13 activity). Settings: substrate 25 μM LTB3, 3 mM NAD+, 125 nM HSD17B13 enzyme, 1 hour at 26.5° C.
T1 construct: His; made in house; host or cells: E. coli
T1 sequence (Q7Z5P4 20-300): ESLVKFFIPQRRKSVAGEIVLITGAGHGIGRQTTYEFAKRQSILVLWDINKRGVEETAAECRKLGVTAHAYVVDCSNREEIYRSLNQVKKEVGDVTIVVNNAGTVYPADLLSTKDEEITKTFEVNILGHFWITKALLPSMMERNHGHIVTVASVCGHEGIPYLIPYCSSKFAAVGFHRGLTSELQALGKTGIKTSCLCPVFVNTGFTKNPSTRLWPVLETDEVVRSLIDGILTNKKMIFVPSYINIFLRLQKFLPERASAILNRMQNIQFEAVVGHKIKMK
Format: biochemical
Description: Example A: NADH Detection Assay for Evaluation of HSD17ß13 Activity and Identification of Inhibitors
The fluorescence based Leukotriene B3 (LTB3) assay monitors the fluorescence of NADH, which is generated from NAD+ during the dehydrogenation of the substrate LTB3. The reactions were performed in a 384-well plates (Greiner; #655076) in a 20 μl reaction volume containing the following reagents (final concentrations): 25 μM LTB3 (Cayman; #20109); 3 mM NAD+ (Sigma; #N0623); 125 nM HSD17B13 enzyme (in-house; E. coli expressed His-tagged, purified, soluble protein); […] potassium phosphate buffer, pH 7.4; and 1% DMSO. Reactions were initiated by co-addition of NAD+ and enzyme, and monitored for 1 hour at 26.5° C. Generation of NADH was measured as the fluorescence signal (Excitation at 340 nm and Emission at 445 nm) at 1 hour minus the baseline fluorescence at t=0. Fluorescence signals in the absence of LTB3 (negative control values), were subtracted from all values so that the results reflected substrate-dependent production of NADH. NADH standards were included to allow the conversion of relative fluorescence units into rates of enzyme activity. Enzyme activity in the presence of test compounds was expressed as a percentage of the uninhibited enzyme activity, and plotted versus inhibitor concentration. Non-linear regression was performed using a four-parameter logistic model and GraphPad Prism software (GraphPad Software, La Jolla, CA). Ten concentrations of inhibitor were tested (in the range of 30 μM-2.5 nM), and two independent assessments were performed at each concentration.

Which IC50 does the source give for `N#Cc1cc(Oc2ccc(F)c(O)c2)nc(-c2cccc(O)c2F)c1` [Example 27, 2-(4-fluoro-3-hydroxyphenoxy)-6-(2-fluoro-3-hydroxyphenyl) pyridine-4-carbonitrile] here?
Its IC50 is at most 5 µM.

For `Oc1cc(Oc2cccc(-c3ccccc3F)n2)ccc1F` [Example 90, 2-fluoro-5-((6-(2-fluorophenyl)pyridin-2-yl)oxy)phenol], which IC50 is on record?
Its IC50 is at most 5 µM.

For `O=S(=O)(c1ccc(F)c(O)c1)c1cccc(-c2cccc(O)c2F)n1` [Example 55, 2-fluoro-3-[6-(4-fluoro-3-hydroxybenzenesulfonyl)pyridin-2-yl]phenol], which IC50 is on record?
Its IC50 is 5 to 10 µM.

Which IC50 does the source give for `COc1cc(Oc2cccc(-c3ccc4cn[nH]c4c3)n2)ccc1F` [Example 110, 6-[6-(4-fluoro-3-methoxyphenoxy)pyridin-2-yl]-2H-indazole] here?
The IC50 was over 30 µM.

Which IC50 does the source give for `Oc1cccc(Oc2cccc(-c3cccc(O)c3F)n2)c1F` [Example 36, 2-fluoro-3-(6-(2-fluoro-3-hydroxyphenoxy)pyridin-2-yl)phenol] here?
Its IC50 is at most 5 µM.

Which IC50 does the source give for `COc1cccc(-c2cccc(Oc3cccc(NS(=O)(=O)C4CC4)c3)n2)c1F` [Example 95, N-(3-{[6-(2-fluoro-3-methoxyphenyl)pyridin-2-yl]oxy}phenyl)cyclopropane-sulfonamide] here?
Its IC50 is over 30 µM.

`CNC(=O)c1ccc(-c2cccc(Oc3ccc(F)c(O)c3)n2)cc1` [Example 80, 4-(6-(4-fluoro-3-hydroxyphenoxy)pyridin-2-yl)-N-methylbenzamide] was tested. Which IC50 did it give?
Its IC50 is at most 5 µM.

For `Oc1cc(Oc2cccc(-c3ccc(OCc4ccccc4)c(F)c3)n2)ccc1F` [Example 34, 5-({6-[4-(benzyloxy)-3-fluorophenyl]pyridin-2-yl}oxy)-2-fluorophenol], which IC50 is on record?
Its IC50 is over 30 µM.

For `NS(=O)(=O)c1cccc(-c2cccc(Oc3ccc(F)c(O)c3)n2)c1` [Example 49, 3-[6-(4-fluoro-3-hydroxyphenoxy)pyridin-2-yl]benzene-1-sulfonamide], which IC50 is on record?
The IC50 was 5 to 10 µM.

With `CC(=O)Nc1nc2cc(-c3cccc(Oc4ccc(F)c(O)c4)n3)ccc2[nH]1` [Example 26, N-(5-(6-(4-fluoro-3-hydroxyphenoxy)pyridin-2-yl)-1H-benzo [d]imidazol-2-yl)acetamide] as the compound, how does the IC50 read?
The IC50 was at most 5 µM.

For `N#Cc1ccc(Oc2ccc(F)c(O)c2)nc1N1CCOCC1` [Example 62, 6-(4-fluoro-3-hydroxyphenoxy)-2-(morpholin-4-yl)pyridine-3-carbonitrile], which IC50 is on record?
Its IC50 is over 30 µM.

How did the IC50 turn out when `Nc1nc2cc(-c3cccc(Oc4ccc(F)c(O)c4)n3)ccc2o1` [Example 32, 5-{[6-(2-amino-1,3-benzoxazol-5-yl)pyridin-2-yl]oxy}-2-fluorophenol] was run?
The IC50 was 5 to 10 µM.

For `NS(=O)(=O)Nc1cc(Oc2cccc(-c3cccc(O)c3F)n2)ccc1F` [Example 30, N-(2-fluoro-5-{[6-(2-fluoro-3-hydroxyphenyl)pyridin-2-yl]oxy}phenyl)aminosulfonamide], which IC50 is on record?
Its IC50 is over 30 µM.

For `Oc1cc(Oc2cccc(-c3ccc4cn[nH]c4c3)n2)ccc1F` [Example 3, 5-((6-(1H-indazol-6-yl)pyridin-2-yl)oxy)-2-fluorophenol], which IC50 is on record?
Its IC50 is 5 to 10 µM.

For `COc1ccc(-c2cccc(Oc3ccc(F)c(O)c3)n2)c(F)c1` [Example 87, 2-fluoro-5-{[6-(2-fluoro-4-methoxyphenyl)pyridin-2-yl]oxy}phenol], which IC50 is on record?
The IC50 was at most 5 µM.

How did the IC50 turn out when `COc1cc(Oc2nccc(-c3cccc(O)c3F)n2)ccc1F` [Example 10, 2-fluoro-3-[2-(4-fluoro-3-methoxyphenoxy)pyrimidin-4-yl]phenol] was run?
The IC50 was over 30 µM.

`Oc1cc(Sc2cccc(-c3cccc(O)c3F)n2)ccc1F` [Example 15, 2-fluoro-3-(6-((4-fluoro-3-hydroxyphenyl)thio)pyridin-2-yl) phenol] was tested. Which IC50 did it give?
Its IC50 is at most 5 µM.

Which IC50 does the source give for `Oc1cc(Oc2cccc(-c3ccc(Cl)c(C(F)(F)F)c3)n2)ccc1F` [Example 101, 5-((6-(4-chloro-3-(trifluoromethyl)phenyl)pyridin-2-yl)oxy)-2-fluorophenol] here?
The IC50 was 10 to 30 µM.

For `Oc1cc(Oc2cccc(-c3ccc(C(F)(F)F)c(Cl)c3)n2)ccc1F` [Example 100, 5-((6-(3-chloro-4-(trifluoromethyl)phenyl)pyridin-2-yl)oxy)-2-fluorophenol], which IC50 is on record?
The IC50 was 10 to 30 µM.

For `O=S(=O)(Nc1cccc(Oc2cccc(-c3cccc(O)c3F)n2)c1)C1CC1` [Example 93, N-(3-{[6-(2-fluoro-3-hydroxyphenyl)pyridin-2-yl]oxy}phenyl)cyclopropane-sulfonamide], which IC50 is on record?
Its IC50 is over 30 µM.

`COc1cccc(-c2cccc(Oc3ccc(O)nc3)n2)c1F` [Example 108, 5-{[6-(2-fluoro-3-methoxyphenyl)pyridin-2-yl]oxy}-1,2-dihydropyridin-2-one] was tested. Which IC50 did it give?
Its IC50 is over 30 µM.

For `N#Cc1c(Oc2ccc(F)c(O)c2)cccc1-c1cccc(O)c1F` [Example 22, 2′-fluoro-3-(4-fluoro-3-hydroxyphenoxy)-3′-hydroxy-[1,1′-biphenyl]-2-carbonitrile], which IC50 is on record?
The IC50 was at most 5 µM.

`Oc1cc(Oc2cccc(-c3cccnc3)n2)ccc1F` [Example 1, 5-([2,3′-bipyridin]-6-yloxy)-2-fluorophenol] was tested. Which IC50 did it give?
The IC50 was at most 5 µM.

`Oc1cc(Oc2cccc(-c3ccc(O)c(OCc4ccccc4)c3)n2)ccc1F` [Example 28, 2-(benzyloxy)-4-[6-(4-fluoro-3-hydroxyphenoxy)pyridin-2-yl] phenol] was tested. Which IC50 did it give?
Its IC50 is at most 5 µM.

How did the IC50 turn out when `CNC(=O)c1cc(Oc2ccc(F)c(OC)c2)nc(-c2cccc(O)c2F)c1` [Example 70, 2-(2-fluoro-3-hydroxyphenyl)-6-(4-fluoro-3-methoxyphenoxy)-N-methylpyridine-4-carboxamide] was run?
The IC50 was over 30 µM.

How did the IC50 turn out when `O=S(=O)(c1cccc(-c2cccc(Oc3ccc(F)c(O)c3)n2)c1)N1CCNCC1` [Example 48, 2-fluoro-5-((6-(3-(piperazin-1-ylsulfonyl)phenyl)pyridin-2-yl)oxy) phenol] was run?
The IC50 was over 30 µM.

Which IC50 does the source give for `Oc1cccc(-c2cccc(Oc3ccc(F)c(O)c3)n2)c1` [Example 97, 2-fluoro-5-{[6-(3-hydroxyphenyl)pyridin-2-yl]oxy}phenol] here?
The IC50 was 10 to 30 µM.

`COc1ccc(Oc2cccc(-c3cccc(O)c3F)n2)cc1C(=O)O` [Example 35, 5-((6-(2-fluoro-3-hydroxyphenyl)pyridin-2-yl)oxy)-2-methoxybenzoic acid] was tested. Which IC50 did it give?
Its IC50 is over 30 µM.

How did the IC50 turn out when `CN1C(=O)COc2cc(-c3cccc(Oc4ccc(F)c(O)c4)n3)ccc21` [Example 53, 7-(6-(4-fluoro-3-hydroxyphenoxy)pyridin-2-yl)-4-methyl-2H-benzo[b][1,4]oxazin-3(4H)-one] was run?
Its IC50 is at most 5 µM.

How did the IC50 turn out when `Oc1cccc(-c2cccc(Oc3cccnc3)n2)c1F` [Example 2, 2-fluoro-3-(6-(pyridin-3-yloxy)pyridin-2-yl) phenol] was run?
The IC50 was 5 to 10 µM.

`CNC(=O)c1cc(Oc2ccc(F)c(O)c2)nc(-c2cccc(O)c2F)c1` [Example 69, 2-(4-fluoro-3-hydroxyphenoxy)-6-(2-fluoro-3-hydroxyphenyl)-N-methylpyridine-4-carboxamide] was tested. Which IC50 did it give?
The IC50 was 10 to 30 µM.

Which IC50 does the source give for `CN(c1ccc(F)c(O)c1)c1cccc(-c2cccc(O)c2F)c1C#N` [Example 23] here?
The IC50 was over 30 µM.

For `COc1cccc(-c2cccc(Oc3ccc4c(c3)NC(=O)C4)n2)c1F` [Example 6, 6-{[6-(2-fluoro-3-methoxyphenyl)pyridin-2-yl]oxy}-2,3-dihydro-1H-indol-2-one], which IC50 is on record?
The IC50 was over 30 µM.

For `COc1cccc(-c2cccc(Oc3cccc(CNS(C)(=O)=O)c3)n2)c1F` [Example 96, N-[(3-{[6-(2-fluoro-3-methoxyphenyl)pyridin-2-yl]oxy}phenyl)methyl]methane-sulfonamide], which IC50 is on record?
The IC50 was over 30 µM.
